In article PMC10460844, “Real‐Time Monitoring of Multitarget Antimicrobial Mechanisms of Peptoids Using Label‐Free Imaging with Optical Diffraction Tomography” (Advanced Science, 2023):
Square brackets hold non-standard residues; d marks the D form. Peptide text beside a SMILES is read from it. Gly(N(CH2)2(3-indolyl)) = O=C(O)CNCCc1c[nH]c2ccccc12; Nspe = C[C@H](NCC(=O)O)c1ccccc1; Nphe = O=C(O)CNCc1ccccc1; Nlys = NCCCCNCC(=O)O

How the values were obtained:
[1] = Analytical reversed-phase HPLC elution (hydrophobicity); format: physicochemical; settings: Table S1; analytical RP-HPLC, SunFire C18, water/ACN + 0.1% TFA, 5 to 100% B linear over 30 min, 1 mL/min, UV 220 nm; approximate comparison of hydrophobicity
How it was run: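 Retention time (tR) reflects hydrophobicity, with detection at 220 nm. Elution used a 5–100% acetonitrile linear gradient over 30 min after a 2 min hold at 5%, then 5 min at 100%, with both phases containing 0.1% TFA. Column was an analytical C18 (4.6 × 250 mm, 5 μm) run at 1 mL/min.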

rat erythrocytes = test: Hemolysis assay; format: cell-based
Protocol: The hemolysis assay was performed using rat erythrocytes in phosphate‐buffered saline (PBS), as reported by Mendes et al.^[ [45] ^] Animal studies were approved by the Laboratory Animal Resource Center of Gwangju Institute of Science and Technology. Blood was collected from a 13‐week‐old male Sprague‐Dawley rat in tubes containing 158 USP units of sodium heparin to prevent coagulation and centrifuged at 1000 rpm for 10 min at 4 °C. Plasma was removed carefully and erythrocyte pellets were washed three times with PBS (35 mM phosphate, pH 7.4, 150 mM NaCl). Next, 150 µL of a 10% erythrocyte suspension was mixed with 50 µL of serially diluted peptoids (0–100 µM) in a 96‐well black polypropylene plates (Greiner, Kremsmünster, Austria). Untreated erythrocytes and cells lysed by the addition of 1% Triton X‐100 were used as negative and positive controls, respectively, with the 1% Triton X‐100‐treated wells being accepted to represent 100% hemolysis. The reaction mixture was incubated at 37 °C for 60 min, and the plates were centrifuged at 1000 rpm for 15 min. Aliquots (150 µL) of the supernatant were transferred to fresh 96‐well plates, and the absorbance of each well was measured at 540 nm using a microplate reader. Hemolysis induced by peptoids was calculated as the percentage value of Triton X‐100 lysed cells. The percentage of hemolysis by the extracts was calculated according to the following formula: % hemolysis = [(Abs 540 nm in the peptoid solution – Abs 540 nm in PBS) / (Abs 540 nm in 1% Triton X‐100 – Abs 540 nm in PBS)] × 100. HC10 and HC50 were defined as the peptoid concentrations that caused 10% and 50% hemolysis in rat erythrocytes, respectively. H max indicates the percentage of hemolysis observed at the maximum peptoid concentration, 100 µM throughout this study.

Row | HPLC elution [1] [% MeCN] | SMILES | Hmax (100 µM) (rat erythrocytes) [%] | HC10 (rat erythrocytes; pH 7.4) [µM] | HC50 (rat erythrocytes; pH 7.4) [µM] | HC10 (rat erythrocytes; red cells of rat) [µM] | HC50 (rat erythrocytes; red cells of rat) [µM]
1 | 48.8 | C[C@@H](c1ccccc1)N(CC(=O)N(CCCCN)CC(=O)N(CC(=O)N(CC(=O)N(CCCCN)CC(=O)N(CCc1c[nH]c2ccccc12)CC(=O)N(CCc1c[nH]c2ccccc12)CC(N)=O)[C@@H](C)c1ccccc1)[C@@H](C)c1ccccc1)C(=O)CN(CCCCN)C(=O)CN(CCCCN)C(=O)CN(C(=O)CN(C(=O)CNCCCCN)[C@@H](C)c1ccccc1)[C@@H](C)c1ccccc1 [peptoid 30] (H-[Nlys][Nspe][Nspe][Nlys][Nlys][Nspe][Nlys][Nspe][Nspe][Nlys][Gly(N(CH2)2(3-indolyl))][Gly(N(CH2)2(3-indolyl))]-NH2) | 8.4±0.5 | > 100 | > 100 | – | –
2 | 50.2 | C[C@@H](c1ccccc1)N(CC(=O)N(CCCCN)CC(=O)N(CC(=O)N(CC(=O)N(CCCCN)CC(=O)N(CC(=O)N(CC(=O)N(CCCCN)CC(=O)N(CCc1c[nH]c2ccccc12)CC(=O)N(CCc1c[nH]c2ccccc12)CC(N)=O)[C@@H](C)c1ccccc1)[C@@H](C)c1ccccc1)[C@@H](C)c1ccccc1)[C@@H](C)c1ccccc1)C(=O)CN(CCCCN)C(=O)CNCCCCN [peptoid 31] (H-[Nlys][Nlys][Nspe][Nlys][Nspe][Nspe][Nlys][Nspe][Nspe][Nlys][Gly(N(CH2)2(3-indolyl))][Gly(N(CH2)2(3-indolyl))]-NH2) | 18.4±5.0 | 59.0 | > 100 | – | –
3 | 47.9 | C[C@@H](c1ccccc1)N(CC(N)=O)C(=O)CN(C(=O)CN(CCCCN)C(=O)CN(C(=O)CN(CCCCN)C(=O)CN(CCCCN)C(=O)CN(C(=O)CN(C(=O)CN(CCCCN)C(=O)CN(CCc1c[nH]c2ccccc12)C(=O)CN(CCc1c[nH]c2ccccc12)C(=O)CNCCCCN)[C@@H](C)c1ccccc1)[C@@H](C)c1ccccc1)[C@@H](C)c1ccccc1)[C@@H](C)c1ccccc1 [peptoid 33] | 5.0±0.2 | > 100 | > 100 | – | –
4 | 48.6 | C[C@@H](c1ccccc1)N(CC(N)=O)C(=O)CN(C(=O)CN(CCCCN)C(=O)CN(C(=O)CN(C(=O)CN(CCCCN)C(=O)CN(C(=O)CN(CCCCN)C(=O)CN(CCCCN)C(=O)CN(CCc1c[nH]c2ccccc12)C(=O)CN(CCc1c[nH]c2ccccc12)C(=O)CNCCCCN)[C@@H](C)c1ccccc1)[C@@H](C)c1ccccc1)[C@@H](C)c1ccccc1)[C@@H](C)c1ccccc1 [peptoid 34] | 8.5±1.1 | > 100 | > 100 | – | –
5 | 51.8 | C[C@@H](c1ccccc1)N(CC(N)=O)C(=O)CN(C(=O)CN(CCCCN)C(=O)CN(C(=O)CN(CCCCN)C(=O)CN(CCCCN)C(=O)CN(C(=O)CN(C(=O)CN(CCCCN)C(=O)CN(C(=O)CN(C(=O)CN(CCCCN)C(=O)CN(CCc1c[nH]c2ccccc12)C(=O)CNCCc1c[nH]c2ccccc12)[C@@H](C)c1ccccc1)[C@@H](C)c1ccccc1)[C@@H](C)c1ccccc1)[C@@H](C)c1ccccc1)[C@@H](C)c1ccccc1)[C@@H](C)c1ccccc1 [peptoid 35] | 82.6±3.2 | 20.4 | 63.0 | – | –
6 | 52.4 | C[C@@H](c1ccccc1)N(CC(N)=O)C(=O)CN(C(=O)CN(CCCCN)C(=O)CN(C(=O)CN(C(=O)CN(CCCCN)C(=O)CN(C(=O)CN(C(=O)CN(CCCCN)C(=O)CN(C(=O)CN(CCCCN)C(=O)CN(CCCCN)C(=O)CN(CCc1c[nH]c2ccccc12)C(=O)CNCCc1c[nH]c2ccccc12)[C@@H](C)c1ccccc1)[C@@H](C)c1ccccc1)[C@@H](C)c1ccccc1)[C@@H](C)c1ccccc1)[C@@H](C)c1ccccc1)[C@@H](C)c1ccccc1 [peptoid 36] | 89.1±3.4 | 15.3 | 39.4 | – | –
7 | 52.7 | C[C@@H](c1ccccc1)N(CC(=O)N(CCCCN)CC(=O)N(CC(=O)N(CC(=O)N(CCCCN)CC(=O)N(CC(=O)N(CC(=O)N(CCCCN)CC(N)=O)[C@@H](C)c1ccccc1)[C@@H](C)c1ccccc1)[C@@H](C)c1ccccc1)[C@@H](C)c1ccccc1)C(=O)CN(C(=O)CN(CCCCN)C(=O)CN(CCc1c[nH]c2ccccc12)C(=O)CNCCc1c[nH]c2ccccc12)[C@@H](C)c1ccccc1 [peptoid 37] (H-[Gly(N(CH2)2(3-indolyl))][Gly(N(CH2)2(3-indolyl))][Nlys][Nspe][Nspe][Nlys][Nspe][Nspe][Nlys][Nspe][Nspe][Nlys]-NH2) | – | 21.1 | 57.0 | 13.2 | 38.6
8 | 47.8 | C[C@@H](c1ccccc1)N(CC(=O)N(CCCCN)CC(=O)N(CCCCN)CC(=O)N(CC(=O)N(CC(=O)N(CCCCN)CC(=O)N(CC(=O)N(CC(=O)N(CCCCN)CC(N)=O)[C@@H](C)c1ccccc1)[C@@H](C)c1ccccc1)[C@@H](C)c1ccccc1)[C@@H](C)c1ccccc1)C(=O)CN(CCCCN)C(=O)CN(CCc1c[nH]c2ccccc12)C(=O)CNCCc1c[nH]c2ccccc12 [peptoid 38] (H-[Gly(N(CH2)2(3-indolyl))][Gly(N(CH2)2(3-indolyl))][Nlys][Nspe][Nlys][Nlys][Nspe][Nspe][Nlys][Nspe][Nspe][Nlys]-NH2) | 5.9±0.5 | > 100 | > 100 | – | –
9 | 47.8 | C[C@@H](c1ccccc1)N(CC(=O)N(CCCCN)CC(=O)N(CC(=O)N(CC(=O)N(CCCCN)CC(=O)N(CCCCN)CC(=O)N(CC(=O)N(CCCCN)CC(=O)N(CCc1c[nH]c2ccccc12)CC(=O)N(CCc1c[nH]c2ccccc12)CC(N)=O)Cc1ccccc1)[C@@H](C)c1ccccc1)[C@@H](C)c1ccccc1)C(=O)CN(C(=O)CNCCCCN)[C@@H](C)c1ccccc1 [peptoid 39] (H-[Nlys][Nspe][Nspe][Nlys][Nspe][Nspe][Nlys][Nlys][Nphe][Nlys][Gly(N(CH2)2(3-indolyl))][Gly(N(CH2)2(3-indolyl))]-NH2) | 10.2±0.3 | 100 | > 100 | – | –
10 | 47.5 | C[C@@H](c1ccccc1)N(CC(=O)N(CCCCN)CC(=O)N(CCc1c[nH]c2ccccc12)CC(=O)N(CCc1c[nH]c2ccccc12)CC(N)=O)C(=O)CN(CCCCN)C(=O)CN(CCCCN)C(=O)CN(Cc1ccccc1)C(=O)CN(Cc1ccccc1)C(=O)CN(CCCCN)C(=O)CN(C(=O)CN(C(=O)CNCCCCN)[C@@H](C)c1ccccc1)[C@@H](C)c1ccccc1 [peptoid 40] (H-[Nlys][Nspe][Nspe][Nlys][Nphe][Nphe][Nlys][Nlys][Nspe][Nlys][Gly(N(CH2)2(3-indolyl))][Gly(N(CH2)2(3-indolyl))]-NH2) | 8.9±0.2 | > 100 | > 100 | – | –
11 | 47.5 | C[C@@H](c1ccccc1)N(CC(=O)N(CCCCN)CC(=O)N(CCc1c[nH]c2ccccc12)CC(=O)N(CCc1c[nH]c2ccccc12)CC(N)=O)C(=O)CN(CCCCN)C(=O)CN(CCCCN)C(=O)CN(C(=O)CN(C(=O)CN(CCCCN)C(=O)CN(Cc1ccccc1)C(=O)CN(Cc1ccccc1)C(=O)CNCCCCN)[C@@H](C)c1ccccc1)[C@@H](C)c1ccccc1 [peptoid 41] (H-[Nlys][Nphe][Nphe][Nlys][Nspe][Nspe][Nlys][Nlys][Nspe][Nlys][Gly(N(CH2)2(3-indolyl))][Gly(N(CH2)2(3-indolyl))]-NH2) | 7.1±0.1 | > 100 | > 100 | – | –
12 | 57.7 | C[C@@H](c1ccccc1)N(CC(=O)N(CCCCN)CC(=O)N(CC(=O)N(CC(=O)N(CCCCN)CC(=O)N(CC(=O)N(CC(=O)N(CCCCN)CC(=O)N(CC(=O)N(CC(=O)N(CC(N)=O)Cc1ccccc1)[C@@H](C)c1ccccc1)[C@@H](C)c1ccccc1)[C@@H](C)c1ccccc1)[C@@H](C)c1ccccc1)[C@@H](C)c1ccccc1)[C@@H](C)c1ccccc1)C(=O)CN(C(=O)CN(CCCCN)C(=O)CNCc1ccccc1)[C@@H](C)c1ccccc1 [peptoid 42] (H-[Nphe][Nlys][Nspe][Nspe][Nlys][Nspe][Nspe][Nlys][Nspe][Nspe][Nlys][Nspe][Nspe][Nphe]-NH2) | 105.9±1.1 | < 3.1 | 6.6 | – | –
13 | 56.8 | C[C@@H](c1ccccc1)N(CC(N)=O)C(=O)CN(C(=O)CN(CCCCN)C(=O)CN(C(=O)CN(C(=O)CN(CCCCN)C(=O)CN(C(=O)CN(C(=O)CN(CCCCN)C(=O)CN(C(=O)CN(C(=O)CN(CCCCN)C(=O)CN(Cc1ccccc1)C(=O)CNCc1ccccc1)[C@@H](C)c1ccccc1)[C@@H](C)c1ccccc1)[C@@H](C)c1ccccc1)[C@@H](C)c1ccccc1)[C@@H](C)c1ccccc1)[C@@H](C)c1ccccc1)[C@@H](C)c1ccccc1 [peptoid 43] | 105.6±3.8 | < 3.1 | 6.4 | – | –
